Entries after “also recorded” stand apart in the source; their conditions may differ.
Assays:
ClpB hexamers = target: T1, ClpB hexamers (Escherichia coli, UniProt P63284); test: Sedimentation velocity analytical ultracentrifugation of ClpB; settings: 50 µM DBeQ, 1 mM ATPγS, 1 mg/ml ClpB
T1 construct: made in house
Description: Protein samples (0.5 ml) of wt ClpB and its variants W462F and W543F were dialyzed against 3 changes of 1 l of buffer AUC (50-mM Tris-HCl, pH 7.4, 200-mM KCl, 20-mM MgCl2, 1-mM EDTA, 0.5-mM TCEP). After dialysis, the samples were centrifuged (15 min, 13,000 RPM, 4 °C). The supernatants were collected, and the protein concentration was determined with the Bradford assay. Sedimentation velocity experiments were performed in Beckman Optima XL-I analytical ultracentrifuge equipped with a 4-cell rotor and 2-sector cells. The ClpB samples were diluted to 1 mg/ml in the AUC buffer supplemented with DMSO (5% (v/v) final concentration) with 1-mM ATPɤS, with or without 50-μM DBeQ. Centrifugation was performed at 48,000 RPM at 20 °C. The sedimentation profiles were collected using the interference detection system and analyzed with the Origin software supplied by the instrument manufacturer using the time-derivative method of Stafford ([71]). Observed sedimentation coefficients were corrected to values corresponding to the density and viscosity of water (s20,w) using Sednterp software (www.jphilo.mailway.com) with additional corrections for the presence of 5% DMSO ([72]).

[1] = target: T2, ClpB–DnaK bichaperone system (DnaK–DnaJ–GrpE + ClpB) (Escherichia coli, UniProt P0A6Y8+P63284); test: Aggregate reactivation assay with KJE + ClpB; assay type: biochemical
T2 construct: full-length E. coli DnaK (residues 1–638); made in house; host or cells: E. coli BL21(DE3) for DnaK
Description: G6PDH was chemically denatured by mixing 5 μl of the G6PDH stock solution (441 μM) with 5 μl of buffer A (10 M urea, 16% glycerol, 40-mM DTT) preheated at 47 °C. The samples of G6PDH in buffer A were incubated for 5 min at 47 °C. Subsequently, 5 μl of denatured G6PDH was mixed with 95 μl of buffer B (50-mM Tris-HCl, pH 7.4, 20-mM Mg(OAc)2, 30-mM KCl, 1-mM EDTA, 1-mM β-mercaptoethanol) preheated at 47 °C to initiate protein refolding, which, under these conditions, is inefficient and leads to misfolding and aggregation of G6PDH ([69]). G6PDH aggregate production was arrested after 1 min (for refolding by KJE) or 15 min (for refolding by KJE with ClpB) by transferring into ice for 2 min. To observe the aggregate reactivation, aggregated G6PDH was diluted 10-fold in buffer C (50-mM Tris-HCl, pH 7.4, 20-mM MgCl2, 1-mM EDTA, 0.5-mM TCEP) containing the chaperones KJE (5.5-μM DnaK, 1.1-μM DnaJ, 1.1-μM GrpE) or KJE-ClpB (5.5-μM DnaK, 1.1-μM DnaJ, 1.1-μM GrpE, 1.65-μM ClpB (hexamer)). G6PDH in buffer C without chaperones was used as a control for a spontaneous aggregate reactivation. The chaperone-G6PDH samples (18 μl) were supplemented with 1 μl of DBeQ in DMSO or pure DMSO as a control. The samples were incubated for 2 min at 30 °C. The aggregate reactivation was initiated by adding 1 μl of 100-mM ATP, followed by incubation for 60 min at 30 °C. […] The plate was inserted into Synergy H1 plate reader (BioTek, Winooski, VT) with the chamber temperature at 30 °C, and the sample absorbance at 340 nm was measured after 10 min. The amount of NADPH produced was calculated based on the NADPH molar extinction coefficient, Ɛ340 = 6220 [M^−1 ⋅ cm^−1].
Firefly luciferase (220 μM) was diluted 300-fold in PBS buffer with 1 mg/ml bovine serum albumin and then incubated for 12 min at 45 °C. […] Luminescence was measured using Synergy H1 plate reader (BioTek, Winooski, VT).

E. coli ClpB = target: T3, E. coli ClpB (Escherichia coli, UniProt P63284); assay type: biochemical
T3 construct: made in house
Description: To determine the ATPase activity, ClpB was diluted to 28 μg/ml (49-nM hexamer) in buffer C (50-mM Tris-HCl, pH 7.4, 20-mM MgCl2, 1-mM EDTA, 0.5-mM tris(2-carboxyethyl)phosphine [TCEP]). In some experiments, the ClpB solution was supplemented with 17.4 μg/ml (10 μM) κ-casein. The ClpB aliquots (18 μl) were mixed with 1 μl of the investigated compounds at different concentrations in 100% DMSO or with DMSO as a control. A sample without ClpB was used as a baseline control. After a 10-min preincubation at 37 or 45 °C, the ATP hydrolysis reaction was initiated by adding 1 μl of 100-mM ATP. The samples were incubated for 60 min (basal ClpB activity in the absence of κ-casein) or 15 min (in the presence of κ-casein) at 37 °C or 30 min at 45 °C in the absence of casein. For the E678Q ClpB variant, the incubation time in the presence of κ-casein was 60 min. After incubation, 15 μl of each sample was mixed with 200 μl of the ammonium molybdate/malachite green reagent ([67]) dispensed into a 96-well plate, followed by an addition of 30 μl of 34% sodium citrate ([68]). The plate was agitated inside a Synergy H1 reader (BioTek, Winooski, VT) for 15 min at room temperature, and the samples’ absorbance was measured at 630 nm. The readouts for ClpB-containing samples were corrected for absorbance of samples without ClpB, to account for nonenzymatic production of inorganic phosphate. A standard curve obtained with different inorganic phosphate concentrations was used to determine the amount of phosphate produced from ATP in the presence of ClpB.

T3 sequence (P63284 whole entry): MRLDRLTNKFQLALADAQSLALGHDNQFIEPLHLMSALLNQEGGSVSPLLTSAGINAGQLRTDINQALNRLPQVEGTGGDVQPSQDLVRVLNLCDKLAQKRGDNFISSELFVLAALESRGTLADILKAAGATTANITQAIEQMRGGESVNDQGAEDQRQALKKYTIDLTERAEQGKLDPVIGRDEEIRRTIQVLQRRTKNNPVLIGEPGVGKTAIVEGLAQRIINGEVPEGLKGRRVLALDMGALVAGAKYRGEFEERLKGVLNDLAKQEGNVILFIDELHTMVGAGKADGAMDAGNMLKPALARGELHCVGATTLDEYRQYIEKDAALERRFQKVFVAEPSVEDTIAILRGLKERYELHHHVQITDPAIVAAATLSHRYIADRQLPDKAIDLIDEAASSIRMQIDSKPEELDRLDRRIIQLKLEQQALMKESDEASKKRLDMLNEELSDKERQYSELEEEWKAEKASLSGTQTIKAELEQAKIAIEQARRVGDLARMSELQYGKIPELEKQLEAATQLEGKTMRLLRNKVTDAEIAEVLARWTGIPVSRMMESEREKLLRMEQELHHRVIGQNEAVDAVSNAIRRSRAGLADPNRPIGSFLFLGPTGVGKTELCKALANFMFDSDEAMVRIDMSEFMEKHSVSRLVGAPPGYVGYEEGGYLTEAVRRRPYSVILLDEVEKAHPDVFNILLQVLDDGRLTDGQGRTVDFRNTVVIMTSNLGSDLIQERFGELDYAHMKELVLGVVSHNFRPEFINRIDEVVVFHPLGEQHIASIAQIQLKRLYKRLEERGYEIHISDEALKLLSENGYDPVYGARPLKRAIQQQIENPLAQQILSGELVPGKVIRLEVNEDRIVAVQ
T2 sequence (P63284 whole entry, the tested form may be a part): as the sequence (P63284 whole entry) above
T2 sequence (P0A6Y8 whole entry, the tested form may be a part): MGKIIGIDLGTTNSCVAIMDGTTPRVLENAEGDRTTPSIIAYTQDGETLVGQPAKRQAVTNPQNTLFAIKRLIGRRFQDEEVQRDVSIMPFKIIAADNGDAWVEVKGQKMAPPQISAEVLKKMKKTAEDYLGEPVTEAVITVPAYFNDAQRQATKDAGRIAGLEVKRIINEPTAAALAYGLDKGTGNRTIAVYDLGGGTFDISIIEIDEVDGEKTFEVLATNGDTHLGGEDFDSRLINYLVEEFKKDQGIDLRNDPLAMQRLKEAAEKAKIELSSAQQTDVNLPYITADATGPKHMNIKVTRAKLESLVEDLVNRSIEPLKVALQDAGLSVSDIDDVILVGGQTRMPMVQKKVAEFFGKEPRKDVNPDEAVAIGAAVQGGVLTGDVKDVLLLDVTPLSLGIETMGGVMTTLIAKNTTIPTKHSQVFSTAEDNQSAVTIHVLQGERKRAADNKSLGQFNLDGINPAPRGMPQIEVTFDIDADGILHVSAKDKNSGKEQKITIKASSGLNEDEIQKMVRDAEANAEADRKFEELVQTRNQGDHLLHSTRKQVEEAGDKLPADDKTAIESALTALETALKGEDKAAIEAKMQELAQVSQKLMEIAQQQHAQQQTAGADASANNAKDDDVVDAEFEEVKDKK
T1 sequence (P63284 whole entry): as the sequence (P63284 whole entry) above

c1ccc(CNc2nc(NCc3ccccc3)c3ccccc3n2)cc1 [DBeQ, N^2,N^4-dibenzylquinazoline-2,4-diamine] was tested, and the “dissociation of ClpB hexamers” value (ClpB hexamers) was “does not induce dissociation”, the IC50 [1] was roughly 5 µM and the “inhibition of ClpB-dependent reactivation of aggregated luciferase” value ([1]; KJE + ClpB, 20 min, 25 °C) was “inhibited”. The “inhibition of ClpB-dependent reactivation of aggregated G6PDH” value ([1]; KJE + ClpB, 60 min, 30 °C, compared with KJE alone) was “inhibited by DBeQ with a several-fold lower IC50 than ClpB-independent reactivation by KJE alone”, the “inhibition of the basal ClpB ATPase” value (E. coli ClpB; 100 μM compound, no casein, 37 °C) was “None of the above compounds, except C3, showed a significant inhibition” and the “inhibition of the ClpB ATPase in the presence of casein” value (E. coli ClpB; 100 μM compound, with κ-casein, 37 °C) was “strongly inhibited”. For the same molecule, the “effect on basal ClpB ATPase under heat-shock conditions” value (E. coli ClpB; 45 °C, no casein) was “unaffected; also recorded: does not inhibit”.

Reference: publication PMC7948422, “Repurposing p97 inhibitors for chemical modulation of the bacterial ClpB–DnaK bichaperone system” (The Journal of Biological Chemistry, 2020)
